In general, IC50 refers to the concentration needed to halve the response being measured.

The results in this text go back to patent US20260049076A1, “Tertiary Amine Substituted Bicyclic Compounds Useful as T Cell Activators” (BRISTOL-MYERS SQUIBB COMPANY, priority 2022, published 2026).

The structures appear in SMILES notation.

One test concerns the target T1, human DGKζ (Homo sapiens, UniProt Q13574).
T1 construct: TVMV protease cleavage site (C); Hexa-His (C); made in house; host or cells: Sf9 insect cells (baculovirus)
Kind of test: In vitro DGK inhibition assay, DGKζ liposome (LIPGLO) assay. Type of test: biochemical. As to conditions: read-out: Enzyme Inhibition DGKzeta IC50. As to the method:
(§1) The DGKα and DGKζ reactions were performed using either extruded liposome (DGKα and DGKζ LIPGLO assays) or detergent/lipid micelle substrate (DGKα and DGKζ assays). The reactions were carried out in 50 mM MOPS pH 7.5, 100 mM NaCl, 10 mM MgCl2, 1 μM CaCl2, and 1 mM DTT (assay buffer). The reactions using a detergent/lipid micelle substrate also contained 50 mM octyl B-D-glucopyranoside. The lipid substrate concentrations were 11 mM PS and 1 mM DAG for the detergent/lipid micelle reactions. The lipid substrate concentrations were 2 mM PS, 0.25 mM DAG, and 2.75 mM PC for the extruded liposome reactions (5 mM total lipid). The reactions were carried out in 150 μM ATP The enzyme concentrations for the DGKα and DGKζ were 5 nM
(§2) The compound inhibition studies were carried out as follows: 25 nL (ADPGLO assay) or 50 nL (LIPGLO assay) droplets of each test compound (top concentration 10 mM with 11 point, 3-fold dilution series for each compound) solubilized in DMSO were transferred to wells of a white 1536 well plate (Corning 3725). A 5 mL enzyme/lipid substrate solution at 2× final reaction concentration was prepared by combining 2.5 mL 4× enzyme solution (20 nM DGKα, or DGKζ (prepared as described below) in assay buffer) and 2.5 mL of either 4× liposome or 4× detergent/lipid micelle solution (compositions described below) and incubated at room temperature for 10 minutes. Next, 1 μL 2× enzyme/lipid substrate solution was added to wells containing the test compound and reactions were initiated with the addition of 1 μL 300 uM ATP. The reactions were allowed to proceed for 2 hr (ADPGLO assay) or 1 hr (LIPGLO assay), after which 2 μL Glo Reagent (Promega V9101) was added and incubated for 40 minutes. Next, 4 μL Kinase Detection Reagent was added and incubated for 30 minutes. Luminescence was recorded using an EnVision microplate reader. […] The compounds were evaluated at 11 concentrations to determine IC50.
(§3) The lipid composition was 5 mol % DAG (Avanti 8008110), 40 mol % PS (Avanti 840035P), and 55 mol % PC (Avanti 850457) at a total lipid concentration of 7-8 mg/mL for the liposome solution. The PC, DAG, and PS were dissolved in chloroform, combined, and dried in vacuo to a thin film. The lipids were hydrated to 20 mM in 50 mM MOPS pH 7.5, 100 mM NaCl, 5 mM MgCl2, and were freeze-thawed five times. The lipid suspension was extruded through a 100 nm polycarbonate filter 10-12 times. […] The liposome preparation was stored at 4° C. for as long as four weeks.
(§4) The lipid composition was 5 mol % DAG (Avanti 8008110), 40 mol % PS (Avanti 840035P), and 55 mol % PC (Avanti 850457) at a total lipid concentration of 15.2 mg/mL for the 4× liposome solution. The PC, DAG, and PS were dissolved in chloroform, combined, and dried in vacuo to a thin film. The lipids were hydrated to 20 mM in 50 mM MOPS pH 7.5, 100 mM NaCl, 5 mM MgCl2, and were freeze-thawed five times. The lipid suspension was extruded through a 100 nm polycarbonate filter eleven times. […] The liposome preparation was stored at 4° C. for as long as four weeks.
(§5) Human DGK-alpha-TVMV-His-pFBgate and human DGK-zeta-transcript variant-2-TVMV-His-pFBgate baculovirus samples were generated using the Bac-to-Bac baculovirus expression system (Invitrogen) according to the manufacturer's protocol. […] Baculovirus amplification was achieved using infected Sf9 cells at 1:1500 virus/cell ratios, and grown for 65 hours at 27° C. post-transfection.
(§6) The expression scale up for each protein was carried out in the Cellbag 50L WAVE-Bioreactor System 20/50 from GE Healthcare Bioscience. 12 L of 2×10^6 cells/mL Sf9 cells (Expression System, Davis, CA) grown in ESF921 insect medium (Expression System) were infected with virus stock at 1:200 virus/cell ratios, and grown for 66-68 hours at 27° C. post-infection.

For the next test, the target named is T2, human DGKα (Homo sapiens, UniProt P23743).
T2 construct: TVMV protease cleavage site (C); Hexa-His (C); made in house; host or cells: Sf9 insect cells (baculovirus)
In words: In vitro DGK inhibition assay, DGKα liposome (LIPGLO) assay. Type of test: biochemical. To be noted: read-out: Enzyme Inhibition DGKalpha IC50. As to the method:
as §1, §2, §3, §4, §5, §6

T2 sequence (P23743 with tags, fused parts or gaps): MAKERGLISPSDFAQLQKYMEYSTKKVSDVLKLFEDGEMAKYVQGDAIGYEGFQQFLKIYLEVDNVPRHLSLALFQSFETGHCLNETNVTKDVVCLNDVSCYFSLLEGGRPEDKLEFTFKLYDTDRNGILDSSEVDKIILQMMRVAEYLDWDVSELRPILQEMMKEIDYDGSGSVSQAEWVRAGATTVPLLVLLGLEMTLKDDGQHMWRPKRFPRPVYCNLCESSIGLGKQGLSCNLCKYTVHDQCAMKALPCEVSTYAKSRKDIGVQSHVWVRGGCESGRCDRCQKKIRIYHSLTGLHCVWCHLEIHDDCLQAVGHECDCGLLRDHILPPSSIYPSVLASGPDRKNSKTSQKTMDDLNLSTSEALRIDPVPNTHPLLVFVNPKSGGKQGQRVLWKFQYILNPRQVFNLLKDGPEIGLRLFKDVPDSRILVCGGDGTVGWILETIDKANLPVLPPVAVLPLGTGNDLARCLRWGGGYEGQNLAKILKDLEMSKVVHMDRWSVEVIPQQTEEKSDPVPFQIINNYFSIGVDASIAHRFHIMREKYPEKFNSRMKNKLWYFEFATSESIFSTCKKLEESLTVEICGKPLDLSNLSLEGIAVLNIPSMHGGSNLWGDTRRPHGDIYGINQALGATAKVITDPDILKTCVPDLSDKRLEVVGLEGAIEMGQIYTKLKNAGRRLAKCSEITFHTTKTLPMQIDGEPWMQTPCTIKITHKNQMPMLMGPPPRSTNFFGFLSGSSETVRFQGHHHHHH
T1 sequence (Q13574 with tags, fused parts or gaps isoform Q13574-4): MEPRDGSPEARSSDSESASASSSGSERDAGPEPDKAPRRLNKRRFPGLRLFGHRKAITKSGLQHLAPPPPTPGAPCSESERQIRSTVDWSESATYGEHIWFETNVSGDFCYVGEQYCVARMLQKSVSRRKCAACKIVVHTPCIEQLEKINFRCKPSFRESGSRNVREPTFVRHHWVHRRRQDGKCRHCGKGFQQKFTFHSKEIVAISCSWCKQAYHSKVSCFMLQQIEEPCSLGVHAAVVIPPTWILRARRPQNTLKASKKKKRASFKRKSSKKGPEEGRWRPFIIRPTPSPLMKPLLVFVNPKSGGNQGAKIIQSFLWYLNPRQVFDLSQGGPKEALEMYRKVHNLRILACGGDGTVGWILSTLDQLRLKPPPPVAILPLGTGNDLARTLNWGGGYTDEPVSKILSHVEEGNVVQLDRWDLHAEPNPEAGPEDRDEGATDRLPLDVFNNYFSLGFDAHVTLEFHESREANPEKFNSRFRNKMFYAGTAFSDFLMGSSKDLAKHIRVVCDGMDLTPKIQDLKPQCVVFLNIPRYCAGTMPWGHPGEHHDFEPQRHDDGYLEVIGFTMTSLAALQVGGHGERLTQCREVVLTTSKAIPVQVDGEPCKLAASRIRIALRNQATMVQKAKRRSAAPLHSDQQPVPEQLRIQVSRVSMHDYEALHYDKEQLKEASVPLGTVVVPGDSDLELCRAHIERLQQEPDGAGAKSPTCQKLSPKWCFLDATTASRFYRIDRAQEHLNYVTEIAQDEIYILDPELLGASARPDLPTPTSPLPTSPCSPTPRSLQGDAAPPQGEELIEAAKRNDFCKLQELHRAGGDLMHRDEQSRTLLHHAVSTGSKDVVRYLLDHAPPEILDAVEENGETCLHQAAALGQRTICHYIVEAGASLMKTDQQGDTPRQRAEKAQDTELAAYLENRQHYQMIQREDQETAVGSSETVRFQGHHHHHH

For `Cn1c(=O)cc(N(CC2CC2)c2cccc(C(F)(F)F)c2)c2nc(C#N)ccc21` [Example 47, 8-((cyclopropylmethyl)(3-(trifluoromethyl)phenyl)amino)-5-methyl-6-oxo-5,6-dihydro-1,5-naphthyridine-2-carbonitrile], the figures for the IC50 on human DGKζ and on human DGKα were 5.1 µM and 0.2 µM, respectively.

`Cc1ccccc1N(CC1CC1)c1cc(=O)n(C)c2ccc(C#N)nc12` [Example 49, 8-((cyclopropylmethyl)(o-tolyl)amino)-5-methyl-6-oxo-5,6-dihydro-1,5-naphthyridine-2-carbonitrile]: the half-maximal inhibitory concentration (IC50) was found to be 56 µM on human DGKζ and 4.8 µM at human DGKα.

Regarding `Cn1c(=O)cc(N(CC2CC2)c2ccc(OC(F)(F)F)cc2Cl)c2nc(C#N)ccc21` [Example 50, 8-((2-chloro-4-(trifluoromethoxy)phenyl)(cyclopropylmethyl)amino)-5-methyl-6-oxo-5,6-dihydro-1,5-naphthyridine-2-carbonitrile], the half-inhibitory concentration (IC50) was determined as 2.5 µM at human DGKζ and 4.8 µM at human DGKα.

Consider `Cn1c(=O)cc(N(Cc2ccccc2)CC2CC2)c2nc(C#N)ccc21` [Example 52, 8-(benzyl(cyclopropylmethyl)amino)-5-methyl-6-oxo-5,6-dihydro-1,5-naphthyridine-2-carbonitrile], for which the results for the IC50 on human DGKζ and on human DGKα were 12 µM and 4.5 µM, respectively.

With `Cn1c(=O)cc(N(CC2CC2)c2ccc(-n3cccc3)cc2)c2nc(C#N)ccc21` [Example 54, 8-((4-(1H-pyrrol-1-yl)phenyl) (cyclopropylmethyl)amino)-5-methyl-6-oxo-5,6-dihydro-1,5-naphthyridine-2-carbonitrile], the IC50 on human DGKζ stood at 1.3 µM; on human DGKα, 3.9 µM.

With `COc1cc(N(CC2CC2)c2cc(=O)n(C)c3ccc(C#N)nc23)ccc1F` [Example 55, 8-((cyclopropylmethyl)(4-fluoro-3-methoxyphenyl)amino)-5-methyl-6-oxo-5,6-dihydro-1,5-naphthyridine-2-carbonitrile], the IC50 was 2.2 µM at human DGKζ and 7.7 µM at human DGKα.

As to `Cn1c(=O)nc(N(CC2CC2)c2ccc(C3CC3)cc2)c2nc(C#N)ccc21` [Example 57, 4-((cyclopropylmethyl)(4-cyclopropylphenyl)amino)-1-methyl-2-oxo-1,2-dihydropyrido[3,2-d]pyrimidine-6-carbonitrile], the IC50 is 0.15 µM at human DGKζ and 4.2 µM on human DGKα.

For the molecule `Cn1c(=O)nc(N(CC2CC2)c2ccc(C3CC3)cc2)c2nc(Cl)ccc21` [Example 58, 6-chloro-4-((cyclopropylmethyl) (4-cyclopropylphenyl)amino)-1-methylpyrido[3,2-d]pyrimidin-2(1H)-one], the results for the half-maximal inhibitory concentration (IC50) on human DGKζ and at human DGKα were 1 µM and 3.8 µM, respectively.

Take `Cn1c(=O)c(C#N)c(N(CC2CC2)c2ccc(C3CC3)cc2)c2nc(C#N)ccc21` [Example 59, 8-((cyclopropylmethyl)(4-cyclopropylphenyl)amino)-5-methyl-6-oxo-5,6-dihydro-1,5-naphthyridine-2,7-dicarbonitrile]: the results for the IC50 at human DGKζ and at human DGKα were 6.6 µM and more than 37 µM, respectively.

With `Cn1c(=O)c(C#N)c(N(CC2CC2)c2ccc(C3CC3)cc2)c2ncccc21` [Example 60, 4-((cyclopropylmethyl)(4-cyclopropylphenyl)amino)-1-methyl-2-oxo-1,2-dihydro-1,5-naphthyridine-3-carbonitrile], the values for the half-inhibitory concentration (IC50) on human DGKζ and at human DGKα were 1.4 µM and more than 37 µM, respectively.

For the molecule `COCc1ccccc1N(CC1CC1)c1cc(=O)n(C)c2ccc(C#N)nc12` [Example 67, 8-((cyclopropylmethyl)(2-(methoxymethyl)phenyl)amino)-5-methyl-6-oxo-5,6-dihydro-1,5-naphthyridine-2-carbonitrile], the IC50 on human DGKζ was determined as 21 µM; on human DGKα it was 4.5 µM.

As for `Cc1ccc(-c2ccc(N(CC3CC3)c3cc(=O)n(C)c4ccc(C#N)nc34)cc2)cc1` [Example 69, 8-((cyclopropylmethyl)(4′-methyl-[1,1′-biphenyl]-4-yl)amino)-5-methyl-6-oxo-5,6-dihydro-1,5-naphthyridine-2-carbonitrile], the results for the 50% inhibitory concentration (IC50) at human DGKζ and at human DGKα were 7.5 µM and 5.5 µM, respectively.

As to `Cn1c(=O)cc(N(CC2CC2)c2cccc(-c3ccccc3)c2)c2nc(C#N)ccc21` [Example 70, 8-([1,1′-biphenyl]-3-yl(cyclopropylmethyl)amino)-5-methyl-6-oxo-5,6-dihydro-1,5-naphthyridine-2-carbonitrile], the IC50 on human DGKζ was 27 µM; at human DGKα, 0.17 µM.

For `Cn1c(=O)cc(N(CC2CC2)c2cccc(-c3ccc(Cl)cc3)c2)c2nc(C#N)ccc21` [Example 71, 8-((4′-chloro-[1,1′-biphenyl]-3-yl)(cyclopropylmethyl)amino)-5-methyl-6-oxo-5,6-dihydro-1,5-naphthyridine-2-carbonitrile], the 50% inhibitory concentration (IC50) at human DGKζ is 15 µM; on human DGKα it was 0.14 µM.

For `COc1ccc(-c2ccc(N(CC3CC3)c3cc(=O)n(C)c4ccc(C#N)nc34)cc2)cc1` [Example 73, 8-((cyclopropylmethyl)(4′-methoxy-[1,1′-biphenyl]-4-yl)amino)-5-methyl-6-oxo-5,6-dihydro-1,5-naphthyridine-2-carbonitrile], the values for the half-inhibitory concentration (IC50) at human DGKζ and on human DGKα were 2 µM and 5.3 µM, respectively.

With `Cc1cccc(-c2ccc(N(CC3CC3)c3cc(=O)n(C)c4ccc(C#N)nc34)cc2)c1` [Example 74, 8-((cyclopropylmethyl)(3′-methyl-[1,1′-biphenyl]-4-yl)amino)-5-methyl-6-oxo-5,6-dihydro-1,5-naphthyridine-2-carbonitrile], the figures for the IC50 at human DGKζ and at human DGKα were 1.5 µM and 6.2 µM, respectively.

For `Cc1ccccc1-c1ccc(N(CC2CC2)c2cc(=O)n(C)c3ccc(C#N)nc23)cc1` [Example 75, 8-((cyclopropylmethyl)(2′-methyl-[1,1′-biphenyl]-4-yl)amino)-5-methyl-6-oxo-5,6-dihydro-1,5-naphthyridine-2-carbonitrile], the 50% inhibitory concentration (IC50) was determined as 0.88 µM on human DGKζ and 3.3 µM at human DGKα.

On to `Cn1c(=O)cc(N(CC2CC2)c2ccc(-c3cccc(Cl)c3)cc2)c2nc(C#N)ccc21` [Example 76, 8-((3′-chloro-[1,1′-biphenyl]-4-yl)(cyclopropylmethyl)amino)-5-methyl-6-oxo-5,6-dihydro-1,5-naphthyridine-2-carbonitrile], for which the IC50 was determined as 2.1 µM on human DGKζ and 6.2 µM on human DGKα.

On to `COc1cccc(-c2ccc(N(CC3CC3)c3cc(=O)n(C)c4ccc(C#N)nc34)cc2)c1` [Example 77, 8-((cyclopropylmethyl)(3′-methoxy-[1,1′-biphenyl]-4-yl)amino)-5-methyl-6-oxo-5,6-dihydro-1,5-naphthyridine-2-carbonitrile], for which the half-inhibitory concentration (IC50) came out at 4 µM on human DGKζ and 9.5 µM on human DGKα.

In the case of `Cn1c(=O)cc(N(CC2CC2)c2ccc(-c3ccccc3O)cc2)c2nc(C#N)ccc21` [Example 80, 8-((cyclopropylmethyl)(2′-hydroxy-[1,1′-biphenyl]-4-yl)amino)-5-methyl-6-oxo-5,6-dihydro-1,5-naphthyridine-2-carbonitrile], the 50% inhibitory concentration (IC50) on human DGKζ is 1.3 µM; at human DGKα, 6.3 µM.
